Molecules are shown by their SMILES. Bounds are passed on as bounds.

The target in the first assay is c-Myc template DNA (c-myc quadruplex). Briefly: Quadruplex binding / stop assay (Taq polymerase arrest, capillary electrophoresis). As to conditions: read-out: S DATA; Table 1D, stop assay data.
As for `O=C(NCCN1CCCC1)c1cn2c3c(c(SCCc4cnccn4)c(F)cc3c1=O)Oc1ccc(Cl)cc1-2` [compound 1783], the IC50 is > 15 µM.

On to `O=C(NCCCN1CCOCC1)c1cn2c3c(c(NCCN4CCCC4)c(F)cc3c1=O)Oc1ccccc1-2` [compound 1592], for which the IC50 is > 15 µM.

With `CN(C)CCCCNc1ccc2c(=O)c(C(=O)NC3CC(C)(C)NC(C)(C)C3)cn3c2c1Oc1cc2ccccc2cc1-3` [compound 1543], the IC50 turned out to be 1.75 µM.

Turning to `CC(C)N1CCN(c2c(F)cc3c(=O)c(C(=O)NC4CC(C)(C)NC(C)(C)C4)cn4c3c2Oc2ccccc2-4)CC1` [compound 1571], the IC50 is > 15 µM.

On to `O=C(c1cn2c3c(c(NCCN4CCOCC4)c(F)cc3c1=O)Oc1ccccc1-2)N1CCC(N2CCCC2)CC1` [compound 1613], for which the IC50 was > 15 µM.

As to `CN1CCCC1CCNC(=O)c1cn2c3c(c(N4CCC(c5cnccn5)C4)c(F)cc3c1=O)Oc1ccc(C(N)=O)cc1-2` (centres unmarked) [compound 1773], the IC50 worked out at 6.1 µM.

On to `CN1CCCC1CCNC(=O)c1cn2c3c(c([S+]([O-])CCc4cnccn4)c(F)cc3c1=O)Oc1cc3ccccc3cc1-2` (centres unmarked) [compound 1769], for which the IC50 turned out to be 10 µM.

As to `O=C(O)c1cn2c3c(c(NCC4CCCO4)c(F)cc3c1=O)Oc1cc3ccccc3cc1-2` (centres unmarked) [compound 1740], the IC50 was 8.5 µM.

`O=C(NCCN1CCCC1)c1cn2c3c(c(N4CCC(c5cnccn5)C4)c(F)cc3c1=O)Oc1cc3ccccc3cc1-2` (centres unmarked) [compound 1664]: the IC50 was determined as 1.12 µM.

For the compound `CN1CCN(CCCNC(=O)c2cn3c4c(c(N5CCC(NC(=O)OC(C)(C)C)C5)c(F)cc4c2=O)Oc2ccccc2-3)CC1` (centres unmarked) [compound 1585], the IC50 was > 15 µM.

For the compound `CN1CCN(CCCNc2ccc3c(=O)c(C(=O)NCCC4CCCN4C)cn4c3c2Oc2cc3ccccc3cc2-4)CC1` (centres unmarked) [compound 1553], the IC50 turned out to be 0.75 µM.

For the compound `CN(C)CCCCNC(=O)c1cn2c3c(c(NCCN4CCCC4)c(F)cc3c1=O)Oc1ccccc1-2` [compound 1598], the IC50 was > 15 µM.

For the compound `CN1CCCC1CCNC(=O)c1cn2c3c(c(NC[C@@H]4CCCO4)c(F)cc3c1=O)Oc1cc3ccccc3cc1-2` (some centres unmarked) [compound 1737], the IC50 turned out to be 4 µM.

Take `CN1CCCC1CCNC(=O)c1cn2c3c(c(NC4CCS(=O)(=O)C4)c(F)cc3c1=O)Oc1cc3ccccc3cc1-2` (centres unmarked) [compound 1749]: the IC50 came to 1.95 µM.

For `N=C(N)NCCCCNC(=O)c1cn2c3c(c(NCCN4CCCC4)c(F)cc3c1=O)Oc1ccccc1-2` [compound 1633], the IC50 is > 15 µM.

With `CC(C)N1CCN(c2c(F)cc3c(=O)c(C(=O)NCCCN4CCOCC4)cn4c3c2Oc2ccc(Cl)cc2-4)CC1` [compound 1791], the IC50 was > 15 µM.

Regarding `CCN(CC)CCCC(C)NC(=O)c1cn2c3c(c(N4CC5CCCNC5C4)c(F)cc3c1=O)Oc1ccccc1-2` (centres unmarked) [compound 1729], the IC50 was > 15 µM.

In the case of `CCN(CC)CCCC(C)NC(=O)c1cn2c3c(c(N4CC5CCCNC5C4)ccc3c1=O)Oc1cc3ccccc3cc1-2` (centres unmarked) [compound 1733], the IC50 was > 15 µM.

Turning to `CN1CCCC1CCNC(=O)c1cn2c3c(c(NCCCN4CCOCC4)ccc3c1=O)Oc1cc3ccccc3cc1-2` (centres unmarked) [compound 1529], the IC50 is 1.75 µM.

Regarding `CC1(C)CC(NC(=O)c2cn3c4c(c(N5CCC(NC(=O)OC(C)(C)C)C5)ccc4c2=O)Oc2cc4ccccc4cc2-3)CC(C)(C)N1` (centres unmarked) [compound 1537], the IC50 was determined as 1.75 µM.

Take `CCOC(=O)c1cn2c3c(c(N4CCN(C(C)=O)CC4)c(F)cc3c1=O)Oc1cc(Cl)ccc1-2` [compound 1806]: the IC50 was > 15 µM.

As to `O=C(NCCN1CCCC1)c1cn2c3c(c(N4CCN(C(=O)N5CCC[C@H]5C(=O)C(F)(F)F)CC4)c(F)cc3c1=O)Oc1cc(Cl)ccc1-2` [compound 1824], the IC50 amounted to 9.4 µM.

`CC(O)CNc1c(F)cc2c(=O)c(C(=O)NCCC3CCCN3C)cn3c2c1Oc1cc2ccccc2cc1-3` (centres unmarked) [compound 1656]: the IC50 was determined as 1.75 µM.

With `CN1CCCC1CCNC(=O)c1cn2c3c(c(NC[C@H]4CCCO4)c(F)cc3c1=O)Oc1cc3ccccc3cc1-2` (some centres unmarked) [compound 1735], the IC50 is 2.5 µM.

With `C[C@H](O)CNc1c(F)cc2c(=O)c(C(=O)NCCC3CCCN3C)cn3c2c1Oc1cc2ccccc2cc1-3` (some centres unmarked) [compound 1683], the IC50 came out at 1.75 µM.

The assay is the same for the next values; noted with them: read-out: Stop Data c-Myc μM; concentration at which 50% of the DNA was arrested (arrested:full-length 1:1).
Take `CN1CCC[C@@H]1CCNC(=O)c1cn2c3c(c(N4CCC(c5cnccn5)C4)c(F)cc3c1=O)Oc1cc3ccccc3cc1-2` (some centres unmarked) [compound 468]: the IC50 is 0.74 µM.

With `CN1CCCC1CCNC(=O)c1cn2c3cc4c(cc3oc3c(NCCCN5CCOCC5)c(F)cc(c1=O)c32)c(=O)c1ccccc14` (centres unmarked) [compound 420], the IC50 amounted to 0.75 µM.

For `CN(C)CCCCNC(=O)c1cn2c3c(c(N)c(F)c(N4CC[C@H](N)C4)c3c1=O)Oc1cc3ccccc3cc1-2` [compound 190], the IC50 was determined as 1.75 µM.

Consider `O=C(NCCCn1ccnc1)c1cn2c3c(c(NCCCN4CCOCC4)c(F)cc3c1=O)Oc1cc3c(cc1-2)oc1ccccc13` [compound 313], for which the IC50 came to 1 µM.

Take `CN1CCCC1CCNC(=O)c1cn2c3c(c(N4CCC(n5c(=O)[nH]c6ccccc65)CC4)c(F)cc3c1=O)Oc1cc3ccccc3cc1-2` (centres unmarked) [compound 324]: the IC50 was 1 µM.

`CC(C)(C)OC(=O)N[C@@H]1CCN(c2c(F)cc3c(=O)c(C(=O)NCCN4CCCC4)cn4c3c2Oc2cc3ccccc3cc2-4)C1` [compound 121]: the IC50 turned out to be 1.75 µM.

Consider `CN1CCCC1CCNc1c(F)cc2c(=O)c(C(=O)O)cn3c4cc5oc6cc(N)ccc6[nH]c5cc4oc1c23` (centres unmarked) [compound 20], for which the IC50 was 0.75 µM.

As to `CN(C)CCCCNC(=O)c1cn2c3c(c(NCCCCN(C)C)ccc3c1=O)Oc1cc3ccccc3cc1-2` [compound 277], the IC50 stood at 1.75 µM.

As for `CN(C)CCN(Cc1ccccc1)C(=O)c1cn2c3c(c(N4CCC(N)C4)c(F)cc3c1=O)Oc1cc3ccccc3cc1-2` (centres unmarked) [compound 194], the IC50 worked out at 1.75 µM.

Consider `Nc1c(F)c(NCCCN2CCOCC2)c2c3c1c(=O)c(C(=O)N1CCC(N)C1)cn3-c1cc3ccccc3cc1O2` (centres unmarked) [compound 232], for which the IC50 is 1.75 µM.

Turning to `CC1CCCN(CCCNC(=O)c2cn3c4c(c(N5CCC(N)C5)c(F)cc4c2=O)Oc2cc4ccccc4cc2-3)C1` (centres unmarked) [compound 301], the IC50 was found to be 1.75 µM.

With `N=C(N)NCC1CCCC(CNC(=O)c2cn3c4c(c(N5CCC(N)C5)c(F)cc4c2=O)Oc2cc4ccccc4cc2-3)C1` (centres unmarked) [compound 560], the IC50 came to 0.37 µM.

As to `Nc1c(F)c(N2CCC(N)C2)c2c3c1c(=O)c(C(=O)N1CCOCC1)cn3-c1cc3ccccc3cc1O2` (centres unmarked) [compound 239], the IC50 was determined as 1.75 µM.

Take `CN(C)CCNC(=O)c1cn2c3cc4c(=O)c5ccccc5c(=O)c4cc3oc3c(N4CCN(C)CC4)c(F)cc(c1=O)c32` [compound 353]: the IC50 stood at 0.9 µM.

Consider `CC1(C)CC(NC(=O)c2cn3c4c(c(N5CCC(NC(=O)OC(C)(C)C)C5)c(F)cc4c2=O)Oc2cc4ccccc4cc2-3)CC(C)(C)N1` (centres unmarked) [compound 182], for which the IC50 is 1.75 µM.

For `CC(C)(C)OC(=O)NC1CCN(c2c(F)cc3c(=O)c(C(=O)NCc4nc5ccccc5[nH]4)cn4c3c2Oc2cc3ccccc3cc2-4)C1` (centres unmarked) [compound 184], the IC50 amounted to 1.75 µM.

As to `CN(C)CCCCNc1c(F)cc2c(=O)c(C(=O)NCCCN3CCOCC3)cn3c2c1Oc1cc2ccccc2cc1-3` [compound 397], the IC50 turned out to be 0.75 µM.

`CC1(C)CC(NC(=O)c2cn3c4c(c(N5CCC(NC(=O)OC(C)(C)C)C5)ccc4c2=O)Oc2cc4ccccc4cc2-3)CC(C)(C)N1` (centres unmarked) [compound 274]: the IC50 worked out at 1.75 µM.

Consider `CN1CCCC1CCNC(=O)c1cn2c3cc4c(=O)c5ccccc5c(=O)c4cc3oc3c(NCCCN4CCOCC4)c(F)cc(c1=O)c32` (centres unmarked) [compound 348], for which the IC50 was found to be 0.9 µM.

Regarding `Nc1ccc2[nH]c3cc4oc5c(NCCN6CCCC6)c(F)cc6c(=O)c(C(=O)O)cn(c4cc3oc2c1)c56` [compound 9], the IC50 worked out at 1.75 µM.

On to `NC1CCN(c2c(F)cc3c(=O)c(C(=O)N4CCCCC4CN4CCCC4)cn4c3c2Oc2cc3ccccc3cc2-4)C1` (centres unmarked) [compound 249], for which the IC50 was 1.75 µM.

On to `CN1CCCC1CCNC(=O)c1cn2c3c(c(NCC4CCCO4)c(F)cc3c1=O)Oc1cc3ccccc3cc1-2` (centres unmarked) [compound 1471], for which the IC50 is 5 µM.

As to `CN1CCN(CCCNc2c(F)cc3c(=O)c(C(=O)NCCCN4CCOCC4)cn4c3c2Oc2cc3ccccc3cc2-4)CC1` [compound 119], the IC50 is 1.75 µM.

As for `CN1CCN(CCCNC(=O)c2cn3c4cc5c(cc4oc4c(NCCC6CCCN6C)c(F)cc(c2=O)c43)c(=O)c2ccccc25)CC1` (centres unmarked) [compound 426], the IC50 was determined as 0.75 µM.

For `CC(C)(C)OC(=O)N[C@@H]1CCN(c2c(F)cc3c(=O)c(C(=O)NCCCN)cn4c3c2Oc2cc3ccccc3cc2-4)C1` [compound 428], the IC50 is 0.75 µM.

For the compound `CN(C)CCCCNC(=O)c1cn2c3cc4c(=O)c5ccccc5c(=O)c4cc3oc3c(NCCCN4CCOCC4)c(F)cc(c1=O)c32` [compound 167], the IC50 was 1.75 µM.

As for `NC1CCN(c2ccc3c(=O)c(C(=O)NCCCN4CCOCC4)cn4c3c2Oc2cc3ccccc3cc2-4)C1` (centres unmarked) [compound 457], the IC50 came to 0.75 µM.

Turning to `CCCCN1CCC(CNc2c(F)cc3c(=O)c(C(=O)NCCC4CCCN4C)cn4c3c2Oc2cc3ccccc3cc2-4)CC1` (centres unmarked) [compound 336], the IC50 came out at 1 µM.

In the case of `CC1CCCCN1CCCNc1c(F)cc2c(=O)c(C(=O)NCCC3CCCN3C)cn3c2c1Oc1cc2ccccc2cc1-3` (centres unmarked) [compound 259], the IC50 was determined as 1.75 µM.

Consider `Cc1ncn(C(=O)c2cn3c4c(c(N5CCC(NC(=O)OC(C)(C)C)C5)c(F)cc4c2=O)Oc2cc4ccccc4cc2-3)c1CO` (centres unmarked) [compound 187], for which the IC50 was determined as 1.75 µM.

As for `NC1CCN(C(=O)c2cn3c4cc5c(=O)c6ccccc6c(=O)c5cc4oc4c(N5CCC(N)C5)c(F)cc(c2=O)c43)C1` (centres unmarked) [compound 499], the IC50 is 0.4 µM.

For the compound `CN1CCCC1CCNC(=O)c1cn2c3c(c(N4CCC(C#N)(c5ccccc5)CC4)c(F)cc3c1=O)Oc1cc3ccccc3cc1-2` (centres unmarked) [compound 260], the IC50 worked out at 1.75 µM.

On to `O=C(NCCN1CCOCC1)c1cn2c3cc4c(cc3oc3c(NCCN5CCOCC5)c(F)cc(c1=O)c32)c(=O)c1ccccc14` [compound 321], for which the IC50 came to 1 µM.

With `Nc1ccc2[nH]c3cc4oc5c(N6CC[C@H](N)C6)c(F)cc6c(=O)c(C(=O)O)cn(c4cc3oc2c1)c56` [compound 11], the IC50 was 1.75 µM.
